According to patent publication US11287416B2, “Cancer” (NEURO-BIO LTD, priority 2016, dated 2022):
“Also recorded” adds a separate entry of the source. Square brackets hold non-standard residues; d marks the D form. Peptide text beside a SMILES is read from it. Bpa = N[C@@H](Cc1ccc(C(=O)c2ccccc2)cc1)C(=O)O; Phe(4-NH2) = Nc1ccc(C[C@H](N)C(=O)O)cc1; hArg = N=C(N)NCCCC[C@H](N)C(=O)O

Legend:
Format in all cases: cell-based
[1] = test system: AChE activity, PC12 cells; conditions: for protection against T30-induced AChE activity: T30 1 μM combined with blocker
Description: AChE activity was measured using the Ellman reagent that measures the presence of thiol groups as a result of AChE activity. In the case of the G4 experiment, AChE (G4) activity was tested alone and also together with either NBP14 or Tri peptides. PC12 cells were plated the day before the experiment as for the cell viability assay. Cells were treated with T30 (1 μM) alone or combined with NBP14 or Tri peptide (0.5 μM). After treatment, supernatant (perfusate) of each treatment was collected and 25 μL from is each condition were added to a new flat bottomed 96 well plate followed by the addition of 175 μl of Ellman reagent (Solution A: KH2PO4 139 mM and K2HPO4 79.66 mM, pH 7.0; solution B (substrate): Acetylthiocholine Iodide 11.5 mM; Solution C (Reagent): 5,5′-dithiobis (2-nitrobenzoic acid) 8 mM and NaHCO15 mM). The Ellman reagent was prepared as a mixture of the 3 solutions in a ratio 33(A):3(B):4(C). Absorbance measurements were taken for an interval of 60 minutes across experiments at 405 nm in a Vmax plate reader (Molecular devices, Wokingham, UK).
(§1) In each of the different cell techniques, the statistics analysis was performed with the average of the percentage values of 3 or more experiments. Comparisons between multiple treatment groups and the same control were performed by one-way analysis of variance (ANOVA) and Tukey's post-hoc tests using GraphPAD Instat (GraphPAD software, San Diego, Calif.). Statistical significance was taken at a p value<0.05.

[2] = test system: alpha7 nicotinic receptors, PC12 cells; test: Calcium fluorometry (Fluo-8), PNU282987-induced calcium influx in PC12 cells; conditions: PNU282987 1 μM; for protection against T30-induced calcium influx: T30 combined with blocker
Description: PC12 cells were plated in 200 μl of Dulbecco's Modified Eagle's medium (DMEM) plus 2 mM of L-glutamine medium the day before the experiment in 96 well plates. On the day of the experiment, the Fluo-8 solution (Abcam) was prepared as described by the provider by adding 20 μl of Fluo-8 in the assay buffer that contains 9 ml of Hank's Balanced Salt Solution (HBSS) and 1 ml of pluronic F127 Plus. Subsequently, 100 μl of growth medium was removed and 100 μl of Fluo-8 solution were added. Treatments with T30 in conjunction with NBP14 or Tri peptides were added and incubated for 30 minutes in the incubator and 30 minutes room temperature. After 1 h, the plate was placed in the fluorescence plate reader (Fluostar, Optima, BMG Labtech, Ortenberg, Germany). Before reading the fluorescence, PNU282987 1 μM, an alpha7 specific agonist of the nicotinic receptors, was prepared and placed in the Fluostar injector. For each well, the reading was formed by a basal fluorescence reading followed by PNU282987 injection that induced an increase of calcium via nicotinic receptors.
as §1

rat basal forebrain = test: voltage-sensitive dye imaging (VSDI) on brain slices; conditions: for magnitude (summed fluorescence) of evoked responses, compound alone: 4 μM in perfusate, no T30, rat basal forebrain slices
Description: Male Wistar rats (14 days old) were anaesthetised using isoflurane ([…], 100% w/w). Isoflurane was applied to the cotton bed at the bottom of an anaesthetic chamber (glass box 20×15×15 cm) where rats were then placed for approximately 45 s until complete anaesthesia was reached. The hind paw of each anaesthetised rat was pinched to check for the appropriate depth of anaesthesia. Upon confirmation of anaesthesia, rats were quickly decapitated, with the brain being quickly removed and immersed in ice cold oxygenated ‘slicing’ artificial cerebrospinal fluid (aCSF in mmol: 120 NaCl, 5 KCL, 20 NaHCO3, 2.4 CaCl2 2 MgSO4, 1.2 KH2PO4, 10 glucose, 6.7 HEPES salt and 3.3 HEPES acid; pH=7.1). Coronal slices (400 μm thick) were then taken from a block of brain containing the basal forebrain, namely the MS-dBB complex (between +9.20 and +9.48 mm Interaural and +0.48 and +0.2 mm Bregma, FIG. 4A) and the somatosensory barrel field cortex (SiBF, between +8.08 and +7.20 mm Interaural and −0.92 mm and −1.80 mm Bregma) (Paxinos and Watson, 1998) using a Vibratome (Leica VT1000S). Slices were then transferred to a bubbler pot containing oxygenated aCSF at room temperature (recording aCSF in mmol: 124 NaCl, 5 KCL, 20 NaHCO3, 2.4 CaCl2 2 MgSO4, 1.3 KH2PO4, 10 glucose; pH=7.4) which was identical to that used in VSDI (voltage sensitive dye imaging) recording. Slices were then left for approximately 1-1.5 hours before preparing them for VSD staining.
Slices were placed in a dark, high humidity chamber filled with aCSF bubbled with 95% O2, 5% CO2. Once there, the dye solution (4% 0.2 mM styryl dye pyridinium 4-[2-[6-(dibutylamino)-2-napthalenyl]-ethenyl]-1-(3-sulfopropyl)hydroxide(Di-4-NEPPS), Invitrogen, Paisley, UK in 48% aCSF, 48% foetal bovine serum, 3.5% DMSO and 0.4% cremophore EL) (Tominaga et al., 2000) was applied to the slices for 20-25 minutes before being transferred back to a bubbler pot containing oxygenated aCSF kept at room temperature for 30 minutes.
When starting the VSDI recordings, slices were placed in the recording bath on a small piece of filter paper to allow the flow of oxygenated aCSF on the underside of the slice and in order to keep it alive. The slice was then weighed down by a home-made plastic grid that was placed on top of the slice. The perfusing bath solution was heated to 30±1° C. by a stage heater. A concentric bipolar stimulating electrode (FHC, Maine, USA) was placed in the ventral diagonal band of the basal forebrain with stimulation being set to 30V. For the acquisition of VSD data, 2 dimensional images, equivalent to 88×60 pixels, were recorded using the MiCamo2 High Resolution camera (Brain Vision, Japan) with BV_Analyze imaging software. Acquisition of images was coupled to Spike2 V4.23 software (CED Ltd, Cambridge, UK) in order to align the image capture with the stimulation protocol (every 28 s with 30 repeats) via the Micro 1401 MkII. (CED Ltd, Cambridge, UK). Light was generated using an Osram halogen xenophot 64634 HLX EFR Display/Optic lamp and was filtered to emit green (530±10 nm) light using a MHF-G150LR (Moritex Corporation) coupled to the MiCamo2 High resolution imaging system and filtered the emitted fluorescence through a >590 nm high pass filter.
All drug and peptide stocks were prepared in frozen aliquots prior to experiments. For the production of perfusion solutions, stock solutions were thawed and added to recording aCSF as appropriate and bath applied at a constant rate of 1.5 ml/min perfusion using the Minipulse 3 peristaltic pump (Gilson Scientific Ltd., Bedfordshire, UK).

astroglia = test: cell proliferation assay (trophic-toxic effects); conditions: for toxic effect in cell proliferation assay: high concentration, 10 μM
[3] = co-perfusion 4 μM blocker with 2 uM T30

Row | Molecule | protection against T30-induced AChE activity [1] | protection against T30-induced calcium influx [2] | magnitude (summed fluorescence) of evoked responses, compound alone (rat basal forebrain) | magnitude (summed fluorescence) of evoked responses, compound alone (rat basal forebrain; listed as Triol) | blocking of T30-induced effects on basal forebrain activity (rat basal forebrain; [3]) | AChE activity ([1]; peptide alone, 1 μM) | calcium influx ([2]; peptide alone, 1 μM) | cell proliferation, trophic effect on astroglia (astroglia; 1 pM peptide) [%] | cell proliferation, trophic effect on astroglia (astroglia; 10 pM peptide) [%] | toxic effect in cell proliferation assay (astroglia) | effect of T30 alone on evoked VSDI signal (rat basal forebrain; T30 2 uM, basal forebrain of p14 rats) | blocking of T30-induced effects on basal forebrain activity (rat basal forebrain; co-perfusion 2 μM blocker with 2 μM T30, n=29)
1 | CC(=O)N[C@@H](Cc1ccc2ccccc2c1)C(=O)N[C@@H](Cc1ccc(N)cc1)C(=O)N[C@@H](Cc1c[nH]c2ccccc12)C(N)=O [Tri02] (HELM PEPTIDE1{[ac].[O=C([C@H](Cc1ccc2ccccc2c1)N[*:1])[*:2]].[Nc1ccc(C[C@H](N[*:1])C(=O)[*:2])cc1].W.[am]}$$$$V2.0) | protects against the toxic effects of T30 | protects against the toxic effects of T30 | small alterations | recapitulates results seen with application of 4 μM NBP14 | not found to protect against T30-induced deviations from baseline; also recorded: some efficacy in blocking those T30-induced deviation | – | – | – | – | – | – | –
2 | KAEFHRWSSYMVHWKNQFDHYSKQDRCSDL (listed as Homo sapiens) [Compound T30, Acetylcholinesterase (AChE) C-terminus 30 amino acid peptide] | – | – | – | – | – | increases | increases | 120±4 | 135±9 | equal toxic effects | greatest deviation; also recorded: net inhibition | –
3 | c[AEFHRWSSYMVHWK] (head-to-tail cyclised; listed as Homo sapiens) [NBP14] | protects against these toxic effects | protects against these toxic effects | small, non-significant alterations | – | totally block the T30-induced effects | – | – | – | – | – | – | –
4 | AEFHRWSSYMVHWK (listed as Homo sapiens) [Compound T14, toxic 14 amino acid peptide from the C-terminus of acetylcholinesterase] | – | – | – | – | – | – | – | 96±5 | 121±8 | equal toxic effects | – | –
5 | CC(=O)N[C@@H](Cc1ccc(C(=O)c2ccccc2)cc1)C(=O)N[C@@H](CCCCNC(=N)N)C(=O)N[C@@H](Cc1ccc(N)cc1)C(N)=O [Tri04] (Ac-[Bpa]-[hArg]-[Phe(4-NH2)]-NH2) | – | protects the toxic effects of T30 by reducing calcium influx | – | – | totally block the T30-induced effects; also recorded: recapitulates results previously seen with the application of 4 μM NBP14; also recorded: significant effect reversing T30 activity | – | – | – | – | – | – | significant effect on basal forebrain population activity; also recorded: reversal of the inhibitory effect of T30; also recorded: increase in network activity; also recorded: protective role
